Reference: patent US9439975B2, “Small efficient cell penetrating peptides derived from the scorpion toxin maurocalcine” (Commissariat A L'Energie Atomique Et Aux Energies …, priority 2011, dated 2016)
Square brackets hold non-standard residues; d marks the D form. Ends that are not written are not given here. Abu = CC[C@H](N)C(=O)O

Experiments:
proteoglycans = details: cited from earlier work
[1] = target: ryanodine receptor type 1 (RyR1) (Oryctolagus cuniculus, UniProt P11716); details: earlier reports; cited from earlier work
ryanodine receptor type 1 (RyR1), sequence (P11716 whole entry): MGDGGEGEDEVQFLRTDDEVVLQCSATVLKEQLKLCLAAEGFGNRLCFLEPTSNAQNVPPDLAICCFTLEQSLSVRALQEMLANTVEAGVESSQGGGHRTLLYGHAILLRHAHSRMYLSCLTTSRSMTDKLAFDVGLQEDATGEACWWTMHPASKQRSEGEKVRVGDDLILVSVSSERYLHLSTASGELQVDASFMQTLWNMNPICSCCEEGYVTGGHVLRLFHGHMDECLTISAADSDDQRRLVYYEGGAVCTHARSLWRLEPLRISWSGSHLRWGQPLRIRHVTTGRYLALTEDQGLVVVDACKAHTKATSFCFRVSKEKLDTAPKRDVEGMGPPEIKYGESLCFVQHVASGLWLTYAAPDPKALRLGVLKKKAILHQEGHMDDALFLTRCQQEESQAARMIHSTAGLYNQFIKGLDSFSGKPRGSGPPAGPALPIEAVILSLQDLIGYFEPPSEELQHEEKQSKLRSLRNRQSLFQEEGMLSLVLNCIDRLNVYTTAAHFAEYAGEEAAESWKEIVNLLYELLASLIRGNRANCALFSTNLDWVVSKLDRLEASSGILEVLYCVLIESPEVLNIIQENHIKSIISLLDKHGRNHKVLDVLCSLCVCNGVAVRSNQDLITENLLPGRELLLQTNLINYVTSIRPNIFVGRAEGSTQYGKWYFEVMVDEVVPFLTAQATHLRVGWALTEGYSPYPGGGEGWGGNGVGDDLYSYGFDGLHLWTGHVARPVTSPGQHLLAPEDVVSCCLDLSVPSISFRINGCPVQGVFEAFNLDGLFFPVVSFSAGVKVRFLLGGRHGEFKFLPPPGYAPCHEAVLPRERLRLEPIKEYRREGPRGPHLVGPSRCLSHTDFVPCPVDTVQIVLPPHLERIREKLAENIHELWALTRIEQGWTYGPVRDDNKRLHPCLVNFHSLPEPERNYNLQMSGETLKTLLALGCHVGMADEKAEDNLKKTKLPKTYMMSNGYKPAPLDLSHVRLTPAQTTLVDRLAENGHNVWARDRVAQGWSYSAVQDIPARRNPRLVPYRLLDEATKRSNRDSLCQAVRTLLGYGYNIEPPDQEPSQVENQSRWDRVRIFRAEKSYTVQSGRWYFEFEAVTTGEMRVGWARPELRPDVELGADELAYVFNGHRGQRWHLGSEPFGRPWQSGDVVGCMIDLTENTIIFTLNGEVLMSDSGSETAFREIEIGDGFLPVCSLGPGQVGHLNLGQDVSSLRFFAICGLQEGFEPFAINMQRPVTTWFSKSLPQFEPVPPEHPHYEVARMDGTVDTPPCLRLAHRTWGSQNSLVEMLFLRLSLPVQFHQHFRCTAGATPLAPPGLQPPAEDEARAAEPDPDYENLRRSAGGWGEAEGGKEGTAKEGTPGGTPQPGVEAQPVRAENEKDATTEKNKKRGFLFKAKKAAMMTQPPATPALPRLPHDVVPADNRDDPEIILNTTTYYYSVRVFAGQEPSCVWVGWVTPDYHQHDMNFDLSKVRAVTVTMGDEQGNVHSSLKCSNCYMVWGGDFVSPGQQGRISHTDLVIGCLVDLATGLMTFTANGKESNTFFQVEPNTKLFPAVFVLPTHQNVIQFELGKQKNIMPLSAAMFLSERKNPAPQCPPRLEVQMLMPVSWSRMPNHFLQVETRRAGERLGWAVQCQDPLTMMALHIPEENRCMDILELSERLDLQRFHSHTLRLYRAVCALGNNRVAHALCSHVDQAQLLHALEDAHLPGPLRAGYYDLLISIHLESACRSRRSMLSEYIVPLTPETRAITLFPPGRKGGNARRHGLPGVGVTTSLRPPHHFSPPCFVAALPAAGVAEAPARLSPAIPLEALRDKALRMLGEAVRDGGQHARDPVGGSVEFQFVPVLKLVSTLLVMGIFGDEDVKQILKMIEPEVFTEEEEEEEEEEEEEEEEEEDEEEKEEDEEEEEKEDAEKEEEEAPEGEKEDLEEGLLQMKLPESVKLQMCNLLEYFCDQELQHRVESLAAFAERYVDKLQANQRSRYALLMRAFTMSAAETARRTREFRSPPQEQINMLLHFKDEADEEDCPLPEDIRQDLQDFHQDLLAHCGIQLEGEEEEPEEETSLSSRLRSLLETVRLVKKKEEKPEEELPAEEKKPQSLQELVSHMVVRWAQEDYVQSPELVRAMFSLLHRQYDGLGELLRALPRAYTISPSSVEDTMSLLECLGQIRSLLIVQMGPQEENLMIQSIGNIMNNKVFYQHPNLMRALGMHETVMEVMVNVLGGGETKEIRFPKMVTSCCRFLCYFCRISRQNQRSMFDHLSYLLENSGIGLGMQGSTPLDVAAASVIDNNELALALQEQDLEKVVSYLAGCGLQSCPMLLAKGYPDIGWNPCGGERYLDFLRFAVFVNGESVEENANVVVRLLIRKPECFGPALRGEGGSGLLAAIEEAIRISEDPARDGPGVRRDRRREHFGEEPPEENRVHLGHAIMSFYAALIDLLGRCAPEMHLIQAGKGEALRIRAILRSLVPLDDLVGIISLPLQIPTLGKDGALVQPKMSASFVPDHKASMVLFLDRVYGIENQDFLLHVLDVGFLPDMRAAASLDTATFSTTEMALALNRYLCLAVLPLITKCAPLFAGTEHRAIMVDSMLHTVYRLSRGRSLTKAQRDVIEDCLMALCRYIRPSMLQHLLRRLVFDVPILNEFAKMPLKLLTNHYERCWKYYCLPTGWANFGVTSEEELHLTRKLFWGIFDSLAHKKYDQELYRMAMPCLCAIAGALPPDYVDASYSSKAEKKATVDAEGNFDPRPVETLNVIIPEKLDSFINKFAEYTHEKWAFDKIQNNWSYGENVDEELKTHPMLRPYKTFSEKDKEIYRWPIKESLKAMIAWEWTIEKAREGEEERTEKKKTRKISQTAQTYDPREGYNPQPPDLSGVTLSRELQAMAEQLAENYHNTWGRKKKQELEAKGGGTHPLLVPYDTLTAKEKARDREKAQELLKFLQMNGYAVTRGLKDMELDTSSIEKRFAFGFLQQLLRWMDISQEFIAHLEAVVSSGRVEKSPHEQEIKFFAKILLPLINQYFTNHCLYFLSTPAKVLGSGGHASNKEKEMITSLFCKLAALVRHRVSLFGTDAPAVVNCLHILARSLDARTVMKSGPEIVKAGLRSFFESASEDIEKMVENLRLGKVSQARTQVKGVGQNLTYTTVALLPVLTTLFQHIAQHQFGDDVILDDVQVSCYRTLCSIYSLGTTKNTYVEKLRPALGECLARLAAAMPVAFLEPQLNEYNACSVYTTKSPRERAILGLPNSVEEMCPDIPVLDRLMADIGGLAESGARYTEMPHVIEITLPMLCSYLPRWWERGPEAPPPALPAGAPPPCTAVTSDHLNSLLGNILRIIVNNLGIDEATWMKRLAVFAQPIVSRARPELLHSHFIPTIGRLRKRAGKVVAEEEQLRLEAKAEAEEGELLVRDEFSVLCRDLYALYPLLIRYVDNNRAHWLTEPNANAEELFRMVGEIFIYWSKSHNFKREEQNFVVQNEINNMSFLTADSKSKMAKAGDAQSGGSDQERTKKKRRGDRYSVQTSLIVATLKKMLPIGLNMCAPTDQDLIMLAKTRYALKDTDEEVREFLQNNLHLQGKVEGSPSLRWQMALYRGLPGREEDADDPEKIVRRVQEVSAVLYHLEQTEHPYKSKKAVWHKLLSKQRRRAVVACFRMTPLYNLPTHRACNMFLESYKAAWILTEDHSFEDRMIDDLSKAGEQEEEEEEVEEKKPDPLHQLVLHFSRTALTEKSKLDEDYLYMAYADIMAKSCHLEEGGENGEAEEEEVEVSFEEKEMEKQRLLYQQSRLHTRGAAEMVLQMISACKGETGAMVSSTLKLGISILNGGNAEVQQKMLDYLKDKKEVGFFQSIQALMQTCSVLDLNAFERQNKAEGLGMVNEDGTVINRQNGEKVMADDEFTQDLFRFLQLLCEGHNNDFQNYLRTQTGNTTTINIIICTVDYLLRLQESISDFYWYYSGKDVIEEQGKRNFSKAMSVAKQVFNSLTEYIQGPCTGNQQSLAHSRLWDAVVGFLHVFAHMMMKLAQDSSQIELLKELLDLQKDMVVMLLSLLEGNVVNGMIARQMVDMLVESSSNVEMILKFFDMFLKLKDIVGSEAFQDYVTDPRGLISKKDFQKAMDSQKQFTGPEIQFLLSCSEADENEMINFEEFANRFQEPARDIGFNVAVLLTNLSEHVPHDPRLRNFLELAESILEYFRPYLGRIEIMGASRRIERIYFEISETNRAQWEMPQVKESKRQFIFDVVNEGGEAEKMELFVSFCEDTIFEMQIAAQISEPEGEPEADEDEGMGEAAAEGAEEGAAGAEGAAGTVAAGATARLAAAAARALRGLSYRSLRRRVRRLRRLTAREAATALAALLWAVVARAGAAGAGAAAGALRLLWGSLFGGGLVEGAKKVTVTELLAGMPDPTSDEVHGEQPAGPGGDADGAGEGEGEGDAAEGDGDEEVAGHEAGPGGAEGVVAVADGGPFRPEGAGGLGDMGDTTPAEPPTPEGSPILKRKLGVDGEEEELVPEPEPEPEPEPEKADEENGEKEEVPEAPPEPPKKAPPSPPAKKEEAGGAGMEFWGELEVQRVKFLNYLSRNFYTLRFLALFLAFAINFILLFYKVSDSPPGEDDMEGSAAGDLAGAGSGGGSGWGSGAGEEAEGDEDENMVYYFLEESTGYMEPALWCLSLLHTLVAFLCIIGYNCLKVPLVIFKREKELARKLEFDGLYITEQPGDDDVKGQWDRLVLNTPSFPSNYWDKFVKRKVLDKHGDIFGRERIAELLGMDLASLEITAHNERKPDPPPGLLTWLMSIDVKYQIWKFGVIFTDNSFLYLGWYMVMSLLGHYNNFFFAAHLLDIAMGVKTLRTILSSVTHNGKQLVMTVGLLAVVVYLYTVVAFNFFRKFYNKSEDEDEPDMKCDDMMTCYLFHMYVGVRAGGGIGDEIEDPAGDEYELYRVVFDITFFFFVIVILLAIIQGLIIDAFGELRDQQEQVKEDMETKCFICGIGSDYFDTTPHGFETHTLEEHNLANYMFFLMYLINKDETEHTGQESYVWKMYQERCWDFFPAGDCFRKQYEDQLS

[2] = in vitro and in vivo; cited from earlier work
[3] = upon intravenous injection; cited from earlier work
cells = details: cited from earlier work
CHO cells = assay: MTT assay of cell viability; format: cell-based, Chinese hamster; details: 1 or 10 μM peptide, 24 hrs
Procedure: Cells were seeded into 96-well micro plates at a density of approximately 8×10^4 cells/well. […] Control wells containing cell culture medium alone or with cells, both without peptide addition, were included in each experiment. 0.1% saponin was used as toxic agent for comparison. The cells were then incubated with 3-(4, 5-dimethylthiazol-2-yl)-2, 5-diphenyl-tetrazolium bromide (MTT) for 30 min. Conversion of MTT into purple colored MTT formazan by the living cells indicates the extent of cell viability. The crystals were dissolved with dimethyl sulfoxide (DMSO) and the optical density was measured at 540 nm using a microplate reader (Biotek ELx-800, MANDEL SCIENTIFIC INC.) for quantification of cell viability. All assays were run in triplicates.

Row | Substance | affinity of interaction with proteoglycans (proteoglycans) | pharmacological action on / interaction with RyR1 [1] | associated toxicity [2] | stability in vivo [3] | cell penetration efficiency (cells; earlier reports) | cell toxicity, comparison (CHO cells) | amiloride sensitivity of cell entry (cells; streptavidine as cargo, earlier studies)
1 | GDCLPHLKLCKENKDCCSKKCKRRGTNIEKRCR [MCa] | micromolar range | exquisite pharmacological activator | almost no associated toxicity | over 24 hrs | penetrates into cells at very low concentrations |  | 
2 | KDaaSKKaKRRGC (KD[Abu][Abu]SKK[Abu]KRRGC) [MCaUF14-25-C] |  |  |  |  |  | slightly more toxic than 1 μM except for MCaUF14-25-C | 
3 | MCaUF1-33: unfolded full-length MCa, six Cys replaced by 2-aminobutyric acid (Abu) (GD[Abu]LPHLKL[Abu]KENKD[Abu][Abu]SKK[Abu]KRRGTNIEKR[Abu]R; not fully specified (residue 33)) |  | unable to interact with MCa's target, the ryanodine receptor RyR1 |  |  |  |  | largely sensitive to amiloride
